For series [1], the target named is T1, recombinant human PAD4 enzyme (Homo sapiens, UniProt Q9UM07).
T1 construct: Full-length recombinant human PAD4 used in the assay was produced at Jubilant Biosys Ltd, Bangalore; made in house
In words: PAD4 biochemical assay measuring ammonia release. The conditions noted are these: 10 semi-log concentrations, figure box prints no unit, x axis μM, read-out: IC50, inhibition of PAD4 enzymatic activity. The protocol:
This assay relies on the ammonia produced when peptidylarginine deiminase 4 (PAD4) deiminates Nα-Benzoyl-L-arginine ethyl ester (BAEE) (Sigma, Catalog No: B4500), a non-natural substrate. The ammonia reacts with a detector i.e., ortho-phthaladehyde (OPA) (Sigma, Catalog No: P0657) resulting in a fluorescent product that is then analyzed at an excitation wavelength of 410 nm and an emission wavelength of 470 nm[33]. Full-length recombinant human PAD4 used in the assay was produced at Jubilant Biosys Ltd, Bangalore. PAD4 enzyme (125 nM) was diluted in Assay Buffer (100 mM HEPES, 50 mM NaCl, 2 mM DTT, 0.6 mg/ml BSA, pH7) and incubated with different concentrations of JBI-589 for 60 min at room temperature and then the reaction was initiated by the addition of substrate (1.5 mM BAEE (sigma) in 100 mM HEPES, 50 mM NaCl, 500 μM CaCl2, 2 mM DTT, pH7) then incubated with 1.5 mM BAEE substrate (Sigma) for another 60 min. The reaction was then stopped by the addition of detection buffer containing 50 mM EDTA, 2.6 mM ortho-phthalaldehyde and 2 mM DTT and fluorescence was measured. IC50 values were determined by sigmoidal dose–response curve (variable slope) using GraphPad Prism 5 software. […]

Series [2] can be described thus: Microsomal stability, MLM. In kind it is in vitro ADME, mouse. The conditions noted are these: 1 µM, liver microsomes 0.5 mg/mL; one range given for HLM/MLM/DLM/RLM. As for the experimental part: Microsomal stability: Liver microsomes (0.5 mg/mL) from different species were incubated with JBI-589 (1 µM) with or without NADPH (1 mM) at 37 °C for 30 min in potassium phosphate buffer (pH 7.4) and then reaction was stopped with quenching solution (0.5% Formic acid in internal standard (IS) containing ACN). Resulting samples were centrifuged and supernatant was taken for LC–MS/MS analysis. Percent metabolism was calculated as follows: % Metabolized: [1 − (test area ratio/control area ratio)] *100.
On the technique in general: Liver microsomes are a subcellular fraction often used to study metabolism.

A short description of the next series: Mice PK study. In kind it is in vivo, Balb/c mice. The text has this: Institutional Animal Ethical Committee (IAEC) of Jubilant Biosys Ltd (IAEC/JDC/2019/188R (for Mice) nominated by CPCSEA (Committee for the Purpose of Control and Supervision of Experiments on Animals) approved the mice pharmacokinetic experiments. Male Balb/c mice (~ 6–8 weeks old with body weight range of 22–25 g) were procured from Vivo Biotech, Hyderabad, India. Rodent feed (manufactured by Altromin Spezialfutter GmbH & Co. KG., ImSeelenkamp20, D-32791 Lage), and water was provided ad libitum. Intravenous (IV) and oral (PO) pharmacokinetics studies were done at doses of 2 mg/Kg and 10 mg/Kg, respectively at a dose volume of 10 mL/Kg. Sparse sampling was done with three mice at each time point. Blood (~ 100 µL) was collected from retro-orbital plexus at 0.12, 0.25, 0.5, 1, 2, 4, 8 and 24 h for IV and 0.25, 0.5, 1, 2, 4, 8, 10 and 24 h for PO route, in tubes containing K2 and EDTA as anticoagulant. It was centrifuged for 5 min at 10,000 rpm in a refrigerated centrifuge (Biofuge, Heraeus, Germany) maintained at 4 °C for plasma separation. For oral dosing of JBI-589 suspension formulation was prepared using 0.5% Tween-80 and 0.5% methyl cellulose (0.5% in water), while for IV dosing 5% DMSO, 5% Solutol:ethanol (1:1, v/v) and 90% normal saline was used.

The test system of another series is mouse neutrophils. Nature of the series: In vitro NET assay, mouse neutrophils. In kind it is cell-based. The conditions noted are these: pretreatment 10 μM for 15 min, ionomycin 4 µM 4 h. The protocol:
Mouse peripheral blood was collected by retro-orbital puncture in ethylenediaminetetraacetic acid (EDTA) anticoagulated buffer supplemented with 1% endotoxin-free BSA in sterile PBS. Neutrophils were isolated by Percoll gradient centrifugation as described previously. The purity of neutrophils was more than 90% as confirmed by the Wright-Giemsa stain.
Mouse or human neutrophils were resuspended in HEPES-supplemented phenol red-free RPMI1640 medium and 1.5 × 10^4 cells were seeded per well in a 96-well plate. After incubating for 20 min at 37 °C and 5% CO2, the cells were stimulated with vehicle control or ionomycin (Sigma, Catalog No: I24222) (4 µM) for 4 h. Neutrophils were fixed with 4% paraformaldehyde (PFA), washed and permeabilized (0.1% Triton X-100, 0.1% sodium citrate) for 10 min at 4 °C. Subsequently, neutrophils were incubated with blocking buffer (2.5% BSA, 0.5% Tween-20 in 1 × PBS) at room temperature for an hour followed by overnight incubation with the primary antibody against citrullinated histone H4 (H4Cit, 1:250, catalog number: 07-596, Millipore, Burlington, MA). […] Images were obtained with a Zeiss Axiovert 200 M wide-field fluorescence microscope (Zeiss, Oberkochen, Germany) with the Zeiss AxioVision software. The percentages of H4Cit positive neutrophils and neutrophil extracellular traps (NETs) were calculated by quantifying more than 200 randomly selected cells. […]

[3] abbreviates: male, Balb/c, mouse, plasma, 2 mg/kg, IV.
Where [4] appears, read: male, Balb/c, mouse, plasma, 10 mg/kg, PO.

Values joined by “and” are separate entries in the source; they are usually repeats but may differ in a detail not shown here. Equal values may be shown once.

T1 sequence (Q9UM07 whole entry): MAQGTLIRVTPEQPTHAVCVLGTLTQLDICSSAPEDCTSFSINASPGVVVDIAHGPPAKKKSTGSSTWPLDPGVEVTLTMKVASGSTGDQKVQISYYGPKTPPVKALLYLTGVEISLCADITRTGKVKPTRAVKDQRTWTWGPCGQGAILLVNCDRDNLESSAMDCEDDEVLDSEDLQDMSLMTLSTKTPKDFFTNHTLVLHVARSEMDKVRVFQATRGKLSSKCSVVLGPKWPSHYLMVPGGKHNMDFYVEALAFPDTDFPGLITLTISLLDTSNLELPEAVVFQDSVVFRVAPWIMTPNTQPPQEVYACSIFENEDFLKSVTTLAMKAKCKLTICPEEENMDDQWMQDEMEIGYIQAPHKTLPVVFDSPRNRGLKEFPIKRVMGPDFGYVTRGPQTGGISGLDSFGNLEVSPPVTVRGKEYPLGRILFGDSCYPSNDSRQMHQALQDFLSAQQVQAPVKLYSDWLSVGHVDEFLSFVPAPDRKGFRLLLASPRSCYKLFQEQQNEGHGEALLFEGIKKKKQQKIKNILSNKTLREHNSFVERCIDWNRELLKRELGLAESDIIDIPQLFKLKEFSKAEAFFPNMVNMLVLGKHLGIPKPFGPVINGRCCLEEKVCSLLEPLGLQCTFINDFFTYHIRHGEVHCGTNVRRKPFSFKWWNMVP

What is called IC50 is the point on the concentration scale where inhibition reaches its midpoint. As a reminder, the AUC(0-inf) is total exposure, with the tail of the curve extrapolated. Lower therefore signals less exposure. What is called AUC(0-t) is exposure summed from dosing to a finite time, without extrapolation to infinity. As usually defined, the Cmax is the peak of the concentration-time curve. As usually defined, the Vd is the apparent volume that relates the amount in the body to the concentration in plasma or blood. Higher therefore signals extensive tissue distribution. Broadly, the clearance is the rate of elimination divided by the concentration. Read a high clearance as a high capacity for elimination. The term half-life denotes the time in which the quantity being followed falls by half. The low end stands for rapid decline, the high end for slow decline. In general, bioavailability refers to the share of a dose that reaches the circulation, judged against a reference dose that is usually intravenous. With `Cc1c(-c2cc3ccccc3n2Cc2ccc(F)cc2)nc2cc(C(=O)N3CCC[C@@H](N)C3)ccn12` [JBI-589, (R)-(3-aminopiperidin-1-yl)(2-(1-(4-fluorobenzyl)-1H-indol-2-yl)-3-methylimidazo[1,2-a]pyridin-7-yl)methanone], the IC50 in series [1] is 0.122 µM and 0.123 µM. Also, the “MLM % metabolized @ 30 min” value in series [2] is given as 25-50%. In addition, the t1/2 in “Mice PK study” (10 mg/kg, PO) was found to be 6.3 h. In “Mice PK study” (setting [3]), this compound registered an AUC(0-inf) of 4380 ng·h/mL, an AUC(0-t) of 3960 ng·h/mL, a C0 of 968 ng/mL and a Cmax of 828 ng/mL. In “Mice PK study” (setting [3]), the Vd came out at 5.24 L/kg, the clearance was determined as 7.61 mL/min/kg and the half-life was 480 min. Moreover, in the series “Mice PK study” (setting [4]), the AUC(0-inf) was 13500 ng·h/mL, the AUC(0-t) turned out to be 12500 ng·h/mL, the highest level (Cmax) was 874 ng/mL and the bioavailability was found to be 63%. In addition, in the series with mouse neutrophils, the H4Cit positivity entry is given as “markedly diminished” and the NET formation entry is given as “markedly diminished”.

Values taken from PMC9950073, “Alleviation of arthritis through prevention of neutrophil extracellular traps by an orally available inhibitor of protein arginine deiminase 4” (Scientific Reports, 2023).
